Measurements from ChEMBL document CHEMBL1201862, “PubChem BioAssay data set” (2004).
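Tested at 5 concentrations; 48 h exposure; 96-well plates; endpoints linearly interpolated, else capped at highest concentration. At the GI50, growth is halved.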 Activity calls are given as the source filed them. No stated cut-off is given here; in the data, active = GI50 up to about 1.1 µM and inactive = higher.

What was measured:
Test in all cases: growth of human tumour cells (NCI), 48 h
OVCAR-3 = test system: OVCAR-3
U-251 = test system: U-251
IGROV-1 = test system: IGROV-1
NCI-H522 = test system: NCI-H522
SF-268 = test system: SF-268
OVCAR-5 = test system: OVCAR-5
MOLT-4 = test system: MOLT-4
NCI-H23 = test system: NCI-H23
RPMI-8226 = test system: RPMI-8226
SK-MEL-2 = test system: SK-MEL-2
HOP-62 = test system: HOP-62
OVCAR-4 = test system: OVCAR-4
CAKI-1 = test system: CAKI-1
SN12C = test system: SN12C
LOX IMVI = test system: LOX IMVI
EKVX = test system: EKVX
M14 = test system: M14
RXF 393 = test system: RXF 393

CC(=O)Nc1ccc(C(=O)NN2C(=O)C(Cl)C2/C=C/c2ccccc2)cc1 (configuration not stated)
GI50 (OVCAR-3): > 100 µM (inactive) | GI50 (U-251): > 100 µM (inactive) | GI50 (IGROV-1): > 100 µM (inactive) | GI50 (NCI-H522): > 100 µM (inactive) | GI50 (SF-268): > 100 µM (inactive) | GI50 (OVCAR-5): > 100 µM (inactive) | GI50 (MOLT-4): > 100 µM (inactive) | GI50 (NCI-H23): > 100 µM (inactive) | GI50 (RPMI-8226): > 100 µM (inactive) | GI50 (SK-MEL-2): > 100 µM (inactive) | GI50 (HOP-62): > 100 µM (inactive)

CC1(C)OC2COC3(CNO)OC(C)(C)OC3C2O1 (configuration not stated)
GI50 (OVCAR-3): > 100 µM (inactive) | GI50 (U-251): > 100 µM (inactive) | GI50 (OVCAR-4): > 100 µM (inactive) | GI50 (IGROV-1): > 100 µM (inactive) | GI50 (CAKI-1): > 100 µM (inactive) | GI50 (SF-268): > 100 µM (inactive) | GI50 (OVCAR-5): > 100 µM (inactive) | GI50 (MOLT-4): > 100 µM (inactive) | GI50 (SN12C): > 100 µM (inactive) | GI50 (LOX IMVI): > 100 µM (inactive) | GI50 (EKVX): > 100 µM (inactive) | GI50 (M14): > 100 µM (inactive) | GI50 (NCI-H23): > 100 µM (inactive) | GI50 (RXF 393): > 100 µM (inactive) | GI50 (SK-MEL-2): > 100 µM (inactive) | GI50 (HOP-62): > 100 µM (inactive)

Nc1nc(=O)n(CC(O)CO)s1 (configuration not stated)
GI50 (OVCAR-3): > 100 µM (inactive) | GI50 (U-251): > 100 µM (inactive) | GI50 (OVCAR-4): > 100 µM (inactive) | GI50 (IGROV-1): > 100 µM (inactive) | GI50 (SF-268): > 100 µM (inactive) | GI50 (OVCAR-5): > 100 µM (inactive) | GI50 (MOLT-4): > 100 µM (inactive) | GI50 (SN12C): > 100 µM (inactive) | GI50 (LOX IMVI): > 100 µM (inactive) | GI50 (EKVX): > 100 µM (inactive) | GI50 (M14): > 100 µM (inactive) | GI50 (NCI-H23): > 100 µM (inactive) | GI50 (RXF 393): > 100 µM (inactive) | GI50 (RPMI-8226): > 100 µM (inactive) | GI50 (SK-MEL-2): > 100 µM (inactive) | GI50 (HOP-62): > 100 µM (inactive)

Cn1c(=O)[nH]c2c(c1=O)C(=O)CN2
GI50 (U-251): > 100 µM (inactive) | GI50 (OVCAR-4): > 100 µM (inactive) | GI50 (IGROV-1): > 100 µM (inactive) | GI50 (CAKI-1): > 100 µM (inactive) | GI50 (SF-268): > 100 µM (inactive) | GI50 (OVCAR-5): > 100 µM (inactive) | GI50 (MOLT-4): > 100 µM (inactive) | GI50 (SN12C): > 100 µM (inactive) | GI50 (LOX IMVI): > 100 µM (inactive) | GI50 (EKVX): > 100 µM (inactive) | GI50 (M14): > 100 µM (inactive) | GI50 (RXF 393): > 100 µM (inactive) | GI50 (RPMI-8226): > 100 µM (inactive) | GI50 (SK-MEL-2): > 100 µM (inactive)

N=C(N)NS(=O)(=O)c1ccc(Nc2c3ccccc3nc3c(C(=O)N4CCN(CCO)CC4)ccc(Cl)c23)cc1
GI50 (OVCAR-3): > 100 µM (inactive) | GI50 (U-251): > 100 µM (inactive) | GI50 (OVCAR-4): > 100 µM (inactive) | GI50 (IGROV-1): > 100 µM (inactive) | GI50 (CAKI-1): > 100 µM (inactive) | GI50 (SF-268): > 100 µM (inactive) | GI50 (OVCAR-5): > 100 µM (inactive) | GI50 (MOLT-4): > 100 µM (inactive) | GI50 (SN12C): > 100 µM (inactive) | GI50 (M14): > 100 µM (inactive) | GI50 (NCI-H23): > 100 µM (inactive) | GI50 (RXF 393): > 100 µM (inactive) | GI50 (RPMI-8226): > 100 µM (inactive) | GI50 (SK-MEL-2): > 100 µM (inactive) | GI50 (HOP-62): > 100 µM (inactive)

C[Si](C)(C)CC(N)=O
GI50 (OVCAR-3): > 100 µM (inactive) | GI50 (U-251): > 100 µM (inactive) | GI50 (OVCAR-4): > 100 µM (inactive) | GI50 (IGROV-1): > 100 µM (inactive) | GI50 (CAKI-1): > 100 µM (inactive) | GI50 (OVCAR-5): > 100 µM (inactive) | GI50 (MOLT-4): > 100 µM (inactive) | GI50 (SN12C): > 100 µM (inactive) | GI50 (LOX IMVI): > 100 µM (inactive) | GI50 (EKVX): > 100 µM (inactive) | GI50 (M14): > 100 µM (inactive) | GI50 (RXF 393): > 100 µM (inactive) | GI50 (RPMI-8226): > 100 µM (inactive) | GI50 (SK-MEL-2): > 100 µM (inactive) | GI50 (HOP-62): > 100 µM (inactive)

Cc1cnc(SCCN2CCN(C)CC2)nc1-c1cc2ccccc2s1
GI50 (OVCAR-3): 5.98 µM (inactive) | GI50 (U-251): 8.36 µM (inactive) | GI50 (OVCAR-4): 16.7 µM (inactive) | GI50 (IGROV-1): > 10 µM (inactive) | GI50 (CAKI-1): 1.51 µM (inactive) | GI50 (NCI-H522): 14.7 µM (inactive) | GI50 (OVCAR-5): > 10 µM (inactive) | GI50 (MOLT-4): 2.52 µM (inactive) | GI50 (SN12C): 9.02 µM (inactive) | GI50 (LOX IMVI): 5.09 µM (inactive) | GI50 (M14): 13.2 µM (inactive) | GI50 (NCI-H23): 16.3 µM (inactive) | GI50 (RXF 393): 10.1 µM (inactive) | GI50 (SK-MEL-2): 16.1 µM (inactive) | GI50 (HOP-62): 0.155 µM (active)
